Several values for one entry are separate records, joined by “and”; a condition that tells them apart may be missing. Equal entries are not always repeated.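 Exposure lasted 48 hours, with cells grown in 96-well plates and compounds tested at five concentrations. Abbreviation: GI50, concentration required for 50% inhibition of growth. TGI is the concentration that stops growth completely.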
Key:
Experiment in all cases: NCI tumour cell line growth inhibition, 48 h
KM20L2 colon = test system: KM20L2 colon
OVCAR-3 ovarian = test system: OVCAR-3 ovarian
IGROV1 ovarian = test system: IGROV1 ovarian
SK-MEL-2 melanoma = test system: SK-MEL-2 melanoma
UACC-257 melanoma = test system: UACC-257 melanoma
DU-145 prostate = test system: DU-145 prostate
HOP-92 NSCLC = test system: HOP-92 NSCLC
HCT-116 colon = test system: HCT-116 colon
T-47D breast = test system: T-47D breast
HL-60(TB) leukemia = test system: HL-60(TB) leukemia
NCI-H460 lung = test system: NCI-H460 lung
NCI-H522 lung = test system: NCI-H522 lung
CAKI-1 renal = test system: CAKI-1 renal
RXF 393 renal = test system: RXF 393 renal
XF 498 CNS = test system: XF 498 CNS
U251 CNS = test system: U251 CNS
NCI/ADR-RES ovarian = test system: NCI/ADR-RES ovarian
MALME-3M melanoma = test system: MALME-3M melanoma
BT-549 breast = test system: BT-549 breast
SK-MEL-28 melanoma = test system: SK-MEL-28 melanoma
ACHN renal = test system: ACHN renal
OVCAR-4 ovarian = test system: OVCAR-4 ovarian
MDA-MB-435 = test system: MDA-MB-435
UACC-62 melanoma = test system: UACC-62 melanoma
HCC-2998 colon = test system: HCC-2998 colon
EKVX NSCLC = test system: EKVX NSCLC
MOLT-4 leukemia = test system: MOLT-4 leukemia
SK-OV-3 ovarian = test system: SK-OV-3 ovarian
OVCAR-8 ovarian = test system: OVCAR-8 ovarian
SF-539 CNS = test system: SF-539 CNS
RPMI-8226 leukemia = test system: RPMI-8226 leukemia
SR leukemia = test system: SR leukemia
786-0 renal = test system: 786-0 renal
DLD-1 colon = test system: DLD-1 colon
M19-MEL melanoma = test system: M19-MEL melanoma
DMS 273 small cell lung = test system: DMS 273 small cell lung
MCF7 breast = test system: MCF7 breast
NCI-H226 lung = test system: NCI-H226 lung
A549 NSCLC = test system: A549 NSCLC
SNB-19 CNS = test system: SNB-19 CNS
MDA-MB-231 breast = test system: MDA-MB-231 breast
TK-10 renal = test system: TK-10 renal
SNB-78 CNS = test system: SNB-78 CNS
A498 renal = test system: A498 renal
COLO 205 colon = test system: COLO 205 colon
HOP-18 NSCLC = test system: HOP-18 NSCLC
DMS 114 small cell lung = test system: DMS 114 small cell lung
P388/ADR leukemia = test system: P388/ADR leukemia
SW-620 colon = test system: SW-620 colon
SK-MEL-5 melanoma = test system: SK-MEL-5 melanoma
OVCAR-5 ovarian = test system: OVCAR-5 ovarian
UO-31 renal = test system: UO-31 renal
KM12 colon = test system: KM12 colon
HT29 colon = test system: HT29 colon
SN12C renal = test system: SN12C renal
SF-295 CNS = test system: SF-295 CNS
SF-268 CNS = test system: SF-268 CNS
HOP-62 NSCLC = test system: HOP-62 NSCLC
P388 leukemia = test system: P388 leukemia
K-562 leukemia = test system: K-562 leukemia
SN12K1 renal = test system: SN12K1 renal
HCT-15 colon = test system: HCT-15 colon
M14 melanoma = test system: M14 melanoma
SNB-75 CNS = test system: SNB-75 CNS
MDA-N = test system: MDA-N
PC-3 prostate = test system: PC-3 prostate
NCI-H23 lung = test system: NCI-H23 lung
CCRF-CEM leukemia = test system: CCRF-CEM leukemia
LOX IMVI melanoma = test system: LOX IMVI melanoma

Q: What does the source list for CN1CCN(c2ccc3nc(-c4ccc5nc(-c6ccc(O)cc6)[nH]c5c4)[nH]c3c2)CC1?
A: TGI (KM20L2 colon): 1160 µM; GI50 (OVCAR-3 ovarian): 13.5 µM and 59.5 µM and 10.1 µM; TGI (OVCAR-3 ovarian): 43.1 µM; TGI (IGROV1 ovarian): 436 µM; GI50 (SK-MEL-2 melanoma): 198 µM; TGI (SK-MEL-2 melanoma): 578 µM; TGI (UACC-257 melanoma): 188 µM; TGI (DU-145 prostate): 526 µM; TGI (HOP-92 NSCLC): 169 µM; GI50 (HCT-116 colon): 5.66 µM and 30.5 µM; TGI (HCT-116 colon): 512 µM; GI50 (T-47D breast): 4.32 µM and 14.2 µM; TGI (T-47D breast): 153 µM; GI50 (HL-60(TB) leukemia): 9.03 µM and 24.3 µM; TGI (HL-60(TB) leukemia): 148 µM; GI50 (NCI-H460 lung): 349 µM; TGI (NCI-H460 lung): 714 µM; GI50 (NCI-H522 lung): 4.47 µM and 3.05 µM; TGI (NCI-H522 lung): 65.5 µM and 202 µM; TGI (CAKI-1 renal): 306 µM; TGI (RXF 393 renal): 529 µM; TGI (XF 498 CNS): 116 µM; TGI (U251 CNS): 799 µM; TGI (NCI/ADR-RES ovarian): 786 µM; GI50 (MALME-3M melanoma): 3.29 µM; TGI (MALME-3M melanoma): 62.5 µM; TGI (BT-549 breast): 715 µM; GI50 (SK-MEL-28 melanoma): 18.8 µM; TGI (SK-MEL-28 melanoma): 92.3 µM; TGI (ACHN renal): 666 µM; TGI (OVCAR-4 ovarian): 609 µM; GI50 (MDA-MB-435): 41.7 µM; TGI (MDA-MB-435): 217 µM; GI50 (UACC-62 melanoma): 14 µM and 86.9 µM and 28 µM; TGI (UACC-62 melanoma): 118 µM; TGI (HCC-2998 colon): 1080 µM; GI50 (EKVX NSCLC): 257 µM; TGI (EKVX NSCLC): 489 µM; GI50 (MOLT-4 leukemia): 37.2 µM and 39.4 µM; TGI (MOLT-4 leukemia): 482 µM; TGI (SK-OV-3 ovarian): 948 µM; GI50 (OVCAR-8 ovarian): 173 µM; TGI (OVCAR-8 ovarian): 539 µM; TGI (SF-539 CNS): 237 µM; GI50 (RPMI-8226 leukemia): 183 µM; TGI (RPMI-8226 leukemia): 648 µM; GI50 (SR leukemia): 4.53 µM; TGI (SR leukemia): 2000 µM; TGI (786-0 renal): 941 µM; TGI (DLD-1 colon): 487 µM; TGI (M19-MEL melanoma): 283 µM; TGI (DMS 273 small cell lung): 158 µM; GI50 (MCF7 breast): 5.33 µM; TGI (MCF7 breast): 422 µM; TGI (NCI-H226 lung): 792 µM; TGI (A549 NSCLC): 756 µM; TGI (SNB-19 CNS): 909 µM; TGI (MDA-MB-231 breast): 639 µM; TGI (TK-10 renal): 1300 µM; TGI (SNB-78 CNS): 638 µM; TGI (A498 renal): 763 µM; GI50 (COLO 205 colon): 6.24 µM and 19.5 µM and 6.78 µM; TGI (COLO 205 colon): 147 µM; TGI (HOP-18 NSCLC): 556 µM; TGI (DMS 114 small cell lung): 483 µM; TGI (P388/ADR leukemia): 725 µM; TGI (SW-620 colon): 959 µM; GI50 (SK-MEL-5 melanoma): 97.9 µM; TGI (SK-MEL-5 melanoma): 158 µM; TGI (OVCAR-5 ovarian): 679 µM; GI50 (UO-31 renal): 10.6 µM; TGI (UO-31 renal): 938 µM; TGI (KM12 colon): 678 µM; TGI (HT29 colon): 295 µM; TGI (SN12C renal): 464 µM; GI50 (SF-295 CNS): 380 µM; TGI (SF-295 CNS): 678 µM; GI50 (SF-268 CNS): 28.6 µM and 45.4 µM; TGI (SF-268 CNS): 717 µM; TGI (HOP-62 NSCLC): 1040 µM; TGI (P388 leukemia): 439 µM; GI50 (K-562 leukemia): 12.7 µM and 6.04 µM; TGI (K-562 leukemia): 470 µM; TGI (SN12K1 renal): 552 µM; TGI (HCT-15 colon): 736 µM; TGI (M14 melanoma): 493 µM; TGI (SNB-75 CNS): 619 µM; GI50 (MDA-N): 8.77 µM; TGI (MDA-N): 354 µM; TGI (PC-3 prostate): 1150 µM; TGI (NCI-H23 lung): 531 µM; GI50 (CCRF-CEM leukemia): 12.9 µM (2×) and 15.4 µM; TGI (CCRF-CEM leukemia): 381 µM; TGI (LOX IMVI melanoma): 553 µM

Reference: PubChem BioAssay (NCI)
